{
  "source": "patent US20190071416A1",
  "about": "“COMPOUNDS FOR TREATMENT OF CANCER AND EPIGENETICS” (Agency For Science, Technology and Research, priority 2015, published 2019)",
  "data": [
    {"target": "T1, SMYD3 (Homo sapiens, UniProt Q9H7B4)", "T1 sequence (Q9H7B4 1-428)": "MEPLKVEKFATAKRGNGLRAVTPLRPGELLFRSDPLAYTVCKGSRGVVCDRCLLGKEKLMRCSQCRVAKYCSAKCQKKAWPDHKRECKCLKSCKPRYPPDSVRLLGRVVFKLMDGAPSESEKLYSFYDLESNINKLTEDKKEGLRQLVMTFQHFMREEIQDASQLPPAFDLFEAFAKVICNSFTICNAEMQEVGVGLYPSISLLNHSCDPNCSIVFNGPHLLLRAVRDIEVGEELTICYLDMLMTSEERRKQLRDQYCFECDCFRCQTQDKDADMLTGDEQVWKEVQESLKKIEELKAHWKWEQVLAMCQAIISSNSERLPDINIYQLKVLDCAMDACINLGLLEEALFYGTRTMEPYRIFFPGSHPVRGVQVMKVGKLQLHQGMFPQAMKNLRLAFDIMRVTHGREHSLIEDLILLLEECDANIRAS", "experiment": "SMYD3 biochemical assay (MTase-Glo, MAP3K2 peptide substrate)", "conditions": "Table 3; MTase assay, MAP3K2 peptide substrate; read-out: IC50", "summary_of_the_method": "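Luminescent readout of SAH production (coupled SAH→ATP conversion, MTase-Glo) after SMYD3 reacted 30 min at room temperature with 1.0 µM SAM and 10 µM MAP3K2 peptide, both final. Non-linear regression gave IC50 values.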", "units": {"IC50": "nM"}, "values": [
      {"smiles": "CCCOC(=O)N1CCN(C(=O)c2ccc3c(Cl)cc(-c4ccc(CF)cc4)nc3c2)[C@@H](C)C1", "note": "[B161, Propyl (S)-4-(4-chloro-2-(4-(fluoromethyl)phenyl)quinoline-7-carbonyl)-3-methylpiperazine-1-carboxylate]", "IC50": 330},
      {"smiles": "CCCOC(=O)N1CCN(C(=O)c2ccc3c(Cl)cc(-c4ccc(O)c(F)c4)nc3c2)[C@@H](C)C1", "note": "[B162, Propyl (S)-4-(4-chloro-2-(3-fluoro-4-hydroxyphenyl)quinoline-7-carbonyl)-3-methylpiperazine-1-carboxylate]", "IC50": 200},
      {"smiles": "CCCOC(=O)N1CCN(C(=O)c2ccc3c(Cl)cc(-c4ccc5c(c4)OCO5)nc3c2)CC1", "note": "[B163, Propyl 4-(2-(benzo[d][1,3]dioxol-5-yl)-4-chloroquinoline-7-carbonyl)piperazine-1-carboxylate]", "IC50": 120},
      {"smiles": "CCCOC(=O)N1CCN(C(=O)c2ccc3c(Cl)cc(-c4ccc5nn[nH]c5c4)nc3c2)CC1", "note": "[B164, Propyl 4-(2-(1H-benzo[d][1,2,3]triazol-6-yl)-4-chloroquinoline-7-carbonyl)piperazine-1-carboxylate]", "IC50": 360},
      {"smiles": "CCCOC(=O)N1CCN(C(=O)c2ccc3c(Cl)cc(-c4ccc(OC)c(F)c4)nc3c2)CC1", "note": "[B165, Propyl 4-(4-chloro-2-(3-fluoro-4-methoxyphenyl)quinoline-7-carbonyl)piperazine-1-carboxylate]", "IC50": 150},
      {"smiles": "CCCOC(=O)N1CCN(C(=O)c2ccc3c(Cl)cc(-c4cnc(C)s4)nc3c2)CC1", "note": "[B166, Propyl 4-(4-chloro-2-(2-methylthiazol-5-yl)quinoline-7-carbonyl)piperazine-1-carboxylate]", "IC50": 3670},
      {"smiles": "CCCOC(=O)N1CCN(C(=O)c2ccc3c(Cl)cc(-c4ccc(F)c(CN(C)C)c4)nc3c2)CC1", "note": "[B167]", "IC50": 660},
      {"smiles": "CCCOC(=O)N1CCN(C(=O)c2ccc3c(Cl)cc(-c4ccn(C)n4)nc3c2)CC1", "note": "[B168, Propyl 4-(4-chloro-2-(1-methyl-1H-pyrazol-3-yl)quinoline-7-carbonyl)piperazine-1-carboxylate]", "IC50": 1750},
      {"smiles": "CCCOC(=O)N1CCN(C(=O)c2ccc3c(Cl)cc(-c4ccc5[nH]ncc5c4)nc3c2)C[C@@H]1C", "note": "[B169, Propyl (S)-4-(4-chloro-2-(1H-indazol-5-yl)quinoline-7-carbonyl)-2-methylpiperazine-1-carboxylate]", "IC50": 150},
      {"smiles": "CCCOC(=O)N1CCN(C(=O)c2ccc3c(Cl)cc(-c4ccc5nn(C)cc5c4)nc3c2)C[C@@H]1C", "note": "[B170, Propyl (S)-4-(4-chloro-2-(2-methyl-2H-indazol-5-yl)quinoline-7-carbonyl)-2-methylpiperazine-1-carboxylate]", "IC50": 260},
      {"smiles": "CCCOC(=O)N1CCN(C(=O)c2ccc3c(Cl)cc(-c4ccc(OC)c(CO)c4)nc3c2)C[C@@H]1C", "note": "[B171, Propyl (S)-4-(4-chloro-2-(3-(hydroxymethyl)-4-methoxyphenyl)quinoline-7-carbonyl)-2-methylpiperazine-1-carboxylate]", "IC50": 150},
      {"smiles": "CCCOC(=O)N1CCN(C(=O)c2ccc3c(Cl)cc(-c4ccc(F)c(CN)c4)nc3c2)CC1", "note": "[B172, Propyl 4-(2-(3-(aminomethyl)-4-fluorophenyl)-4-chloroquinoline-7-carbonyl)piperazine-1-carboxylate]", "IC50": 39},
      {"smiles": "CCCOC(=O)N1CCN(C(=O)c2ccc3c(Cl)cc(-c4cnc5[nH]nc(C)c5c4)nc3c2)CC1", "note": "[B173, Propyl 4-(4-chloro-2-(3-methyl-1H-pyrazolo[3,4-b]pyridin-5-yl)quinoline-7-carbonyl)piperazine-1-carboxylate]", "IC50": 2500},
      {"smiles": "CCCOC(=O)N1CCN(C(=O)c2ccc3c(Cl)cc(-c4cnc5c(cnn5C)c4)nc3c2)CC1", "note": "[B174, Propyl 4-(4-chloro-2-(1-methyl-1H-pyrazolo[3,4-b]pyridin-5-yl)quinoline-7-carbonyl)piperazine-1-carboxylate]", "IC50": 470},
      {"smiles": "CCCOC(=O)N1CCN(C(=O)c2ccc3c(Cl)cc(-c4cnc5[nH]c(C)cc5c4)nc3c2)CC1", "note": "[B175, Propyl 4-(4-chloro-2-(2-methyl-1H-pyrrolo[2,3-b]pyridin-5-yl)quinoline-7-carbonyl)piperazine-1-carboxylate]", "IC50": 400},
      {"smiles": "CCCOC(=O)N1CCN(C(=O)c2ccc3c(Cl)cc(-c4ccc5[nH]nc(C)c5c4)nc3c2)CC1", "note": "[B176, Propyl 4-(4-chloro-2-(3-methyl-1H-indazol-5-yl)quinoline-7-carbonyl)piperazine-1-carboxylate]", "IC50": 490},
      {"smiles": "CCCOC(=O)N1CCN(C(=O)c2ccc3c(Cl)cc(-c4ccc(C)nc4)nc3c2)C[C@H]1C", "note": "[B177, Propyl (R)-4-(4-chloro-2-(6-methylpyridin-3-yl)quinoline-7-carbonyl)-2-methylpiperazine-1-carboxylate]", "IC50": 360},
      {"smiles": "CCCOC(=O)N1CCN(C(=O)c2ccc3c(Cl)cc(-c4ccc(C(=O)OC)nc4)nc3c2)C[C@H]1C", "note": "[B178, Propyl (R)-4-(4-chloro-2-(6-(methoxycarbonyl)pyridin-3-yl)quinoline-7-carbonyl)-2-methylpiperazine-1-carboxylate]", "IC50": 930},
      {"smiles": "CCCOC(=O)N1CCN(C(=O)c2ccc3c(Cl)cc(-c4cnn(C)c4)nc3c2)CC1", "note": "[B179, Propyl 4-(4-chloro-2-(1-methyl-1H-pyrazol-4-yl)quinoline-7-carbonyl)piperazine-1-carboxylate]", "IC50": 250},
      {"smiles": "CCCOC(=O)N1CCN(C(=O)c2ccc3c(Cl)cc(-c4ccc(F)c(N)c4)nc3c2)CC1", "note": "[B180, Propyl 4-(2-(3-amino-4-fluorophenyl)-4-chloroquinoline-7-carbonyl)piperazine-1-carboxylate]", "IC50": 250},
      {"smiles": "CCCOC(=O)N1CCN(C(=O)c2ccc3c(Cl)cc(-c4ccc(O)c(OCC)c4)nc3c2)CC1", "note": "[B181, Propyl 4-(4-chloro-2-(3-ethoxy-4-hydroxyphenyl)quinoline-7-carbonyl)piperazine-1-carboxylate]", "IC50": 290},
      {"smiles": "CCCOC(=O)N1CCN(C(=O)c2ccc3c(Cl)cc(-c4ccc(O)c(CO)c4)nc3c2)C[C@@H]1C", "note": "[B182, Propyl (S)-4-(4-chloro-2-(4-hydroxy-3-(hydroxymethyl)phenyl)quinoline-7-carbonyl)-2-methylpiperazine-1-carboxylate]", "IC50": 140},
      {"smiles": "CCCOC(=O)N1CCN(C(=O)c2ccc3c(Cl)cc(-c4ccc5c(c4)ncn5C)nc3c2)CC1", "note": "[B183, Propyl 4-(4-chloro-2-(1-methyl-1H-benzo[d]imidazol-5-yl)quinoline-7-carbonyl)piperazine-1-carboxylate]", "IC50": 120},
      {"smiles": "CCCOC(=O)N1CCN(C(=O)c2ccc3c(Cl)cc(-c4ccc5[nH]c(O)nc5c4)nc3c2)CC1", "note": "[B184, Propyl 4-(4-chloro-2-(2-hydroxy-1H-benzo[d]imidazol-5-yl)quinoline-7-carbonyl)piperazine-1-carboxylate]", "IC50": 100},
      {"smiles": "CCCOC(=O)N1CCN(C(=O)c2ccc3c(Cl)cc(-c4cnc(N)nc4)nc3c2)CC1", "note": "[B185, Propyl 4-(2-(2-aminopyrimidin-5-yl)-4-chloroquinoline-7-carbonyl)piperazine-1-carboxylate]", "IC50": 870},
      {"smiles": "CCCOC(=O)N1CCN(C(=O)c2ccc3c(Cl)cc(-c4cc(C)c5[nH]ncc5c4)nc3c2)CC1", "note": "[B186, Propyl 4-(4-chloro-2-(7-methyl-1H-indazol-5-yl)quinoline-7-carbonyl)piperazine-1-carboxylate]", "IC50": 140},
      {"smiles": "CCCOC(=O)N1CCN(C(=O)c2ccc3c(Cl)cc(-c4cccc5[nH]cnc45)nc3c2)CC1", "note": "[B187, Propyl 4-(2-(1H-benzo[d]imidazol-4-yl)-4-chloroquinoline-7-carbonyl)piperazine-1-carboxylate]", "IC50": 140},
      {"smiles": "CCCOC(=O)N1CCN(C(=O)c2ccc3c(Cl)cc(-c4cnc5cccnc5c4)nc3c2)C[C@@H]1C", "note": "[B188, Propyl (S)-4-(4-chloro-2-(1,5-naphthyridin-3-yl)quinoline-7-carbonyl)-2-methylpiperazine-1-carboxylate]", "IC50": 890},
      {"smiles": "CCCOC(=O)N1CCN(C(=O)c2ccc3c(Cl)cc(-c4ccc(C(=O)NC)cc4)nc3c2)C[C@@H]1C", "note": "[B189, Propyl (S)-4-(4-chloro-2-(4-(methylcarbamoyl)phenyl)quinoline-7-carbonyl)-2-methylpiperazine-1-carboxylate]", "IC50": 69},
      {"smiles": "CCCOC(=O)N1CCN(C(=O)c2ccc3c(Cl)cc(-c4ccc(C(=O)NC)cc4)nc3c2)[C@@H](C)C1", "note": "[B190, Propyl (S)-4-(4-chloro-2-(4-(methylcarbamoyl)phenyl)quinoline-7-carbonyl)-3-methylpiperazine-1-carboxylate]", "IC50": 130},
      {"smiles": "CCCOC(=O)N1CCN(C(=O)c2ccc3c(Cl)cc(-c4ccc(O)c(F)c4)nc3c2)CC1", "note": "[B191, Propyl 4-(4-chloro-2-(3-fluoro-4-hydroxyphenyl)quinoline-7-carbonyl)piperazine-1-carboxylate]", "IC50": 140},
      {"smiles": "CCCOC(=O)N1CCN(C(=O)c2ccc3c(Cl)cc(-c4ccc(O)c(F)c4)nc3c2)C[C@@H]1C", "note": "[B192, Propyl (S)-4-(4-chloro-2-(3-fluoro-4-hydroxyphenyl)quinoline-7-carbonyl)-2-methylpiperazine-1-carboxylate]", "IC50": 75},
      {"smiles": "CCCOC(=O)N1CCN(C(=O)c2ccc3c(Cl)cc(-c4ccn(C)c4)nc3c2)C[C@@H]1C", "note": "[B193, Propyl (S)-4-(4-chloro-2-(1-methyl-1H-pyrrol-3-yl)quinoline-7-carbonyl)-2-methylpiperazine-1-carboxylate]", "IC50": 60},
      {"smiles": "CCCOC(=O)N1CCN(C(=O)c2ccc3c(Cl)cc(-c4ccn(C)c4)nc3c2)[C@@H](C)C1", "note": "[B194, Propyl (S)-4-(4-chloro-2-(1-methyl-1H-pyrrol-3-yl)quinoline-7-carbonyl)-3-methylpiperazine-1-carboxylate]", "IC50": 130}
    ]}
  ]
}
